Each molecule was assayed against Ba/F3 EGFR Del19/C797S cells (Homo sapiens, UniProt P00533, C797S, cells depend on it, form not given) (assay: Cell proliferation inhibition (Cell Titer-Glo), Ba/F3 EGFR Del19/C797S). Conditions: 72 hours, CellTiter-Glo, read-out: Ba/F3 EGFR Del19/C797S IC50.
Format: cell-based, mouse
From the text: Experimental objective: The objective of this test example is to test the inhibitory activity of compounds on the proliferation of different EGFR C797S drug-resistant mutant cell lines Ba/F3 EGFR Del19/T790M/C797S, Ba/F3 EGFR L858R/T790M/C797S, and Ba/F3 EGFR Del19/C797S.
• Ba/F3 EGFR Del19/T790M/C797S cells were purchased from KYinno Biotechnology Co., Ltd.; • Ba/F3 EGFR Del19/C797S cells were purchased from CoBioer Biosciences Co., Ltd.; • Ba/F3 EGFR L858R/T790M/C797S cells were purchased from CoBioer Biosciences Co., Ltd.; • Cell Titer-Glo was purchased from Promega, with a catalog number of G7573; • RPMI 1640 was purchased from Gibco, with a catalog number of 22400089; • FBS was purchased from Gibco, with a catalog number of 10091148; • cell culture plates were purchased from Corning, with a catalog number of 3610.
The inhibitory activity of the compound on the proliferation of different EGFR C797S drug-resistant mutant cell lines was detected using the Cell Titer-Glo method. The different cell lines were cultured in RPMI 1640 complete culture medium containing 10% FBS under conditions of 37° C. and 5% CO2, the cells were collected by centrifugation when growing to a certain density, and adjusted to appropriate cell density after counting, the cells were spread on a white 96-well plate at 90 μL/well, and cultured in a 37° C., 5% CO2 incubator overnight, prepared compound solutions of different concentrations were added at 10 μL/well, corresponding solvent controls were set, and all wells were cultured in a 37° C., 5% CO2 incubator for 72 hours, 50 μL of CellTiter-Glo solution was added to each well, shook and mixed evenly, and incubated in the dark for 10 minutes, and a BioTek Synergy H1 microplate reader was used for reading.
The luminescence signal value was used to calculate the inhibition rate. Graphpad Prism software was used to fit the concentration and inhibition rate to a nonlinear regression curve, so as to obtain the IC50 value, as shown in the Table below for details.

Chain of Ba/F3 EGFR Del19/C797S cells (P00533 with tags, fused parts or gaps DEL746-750/C797S, form open): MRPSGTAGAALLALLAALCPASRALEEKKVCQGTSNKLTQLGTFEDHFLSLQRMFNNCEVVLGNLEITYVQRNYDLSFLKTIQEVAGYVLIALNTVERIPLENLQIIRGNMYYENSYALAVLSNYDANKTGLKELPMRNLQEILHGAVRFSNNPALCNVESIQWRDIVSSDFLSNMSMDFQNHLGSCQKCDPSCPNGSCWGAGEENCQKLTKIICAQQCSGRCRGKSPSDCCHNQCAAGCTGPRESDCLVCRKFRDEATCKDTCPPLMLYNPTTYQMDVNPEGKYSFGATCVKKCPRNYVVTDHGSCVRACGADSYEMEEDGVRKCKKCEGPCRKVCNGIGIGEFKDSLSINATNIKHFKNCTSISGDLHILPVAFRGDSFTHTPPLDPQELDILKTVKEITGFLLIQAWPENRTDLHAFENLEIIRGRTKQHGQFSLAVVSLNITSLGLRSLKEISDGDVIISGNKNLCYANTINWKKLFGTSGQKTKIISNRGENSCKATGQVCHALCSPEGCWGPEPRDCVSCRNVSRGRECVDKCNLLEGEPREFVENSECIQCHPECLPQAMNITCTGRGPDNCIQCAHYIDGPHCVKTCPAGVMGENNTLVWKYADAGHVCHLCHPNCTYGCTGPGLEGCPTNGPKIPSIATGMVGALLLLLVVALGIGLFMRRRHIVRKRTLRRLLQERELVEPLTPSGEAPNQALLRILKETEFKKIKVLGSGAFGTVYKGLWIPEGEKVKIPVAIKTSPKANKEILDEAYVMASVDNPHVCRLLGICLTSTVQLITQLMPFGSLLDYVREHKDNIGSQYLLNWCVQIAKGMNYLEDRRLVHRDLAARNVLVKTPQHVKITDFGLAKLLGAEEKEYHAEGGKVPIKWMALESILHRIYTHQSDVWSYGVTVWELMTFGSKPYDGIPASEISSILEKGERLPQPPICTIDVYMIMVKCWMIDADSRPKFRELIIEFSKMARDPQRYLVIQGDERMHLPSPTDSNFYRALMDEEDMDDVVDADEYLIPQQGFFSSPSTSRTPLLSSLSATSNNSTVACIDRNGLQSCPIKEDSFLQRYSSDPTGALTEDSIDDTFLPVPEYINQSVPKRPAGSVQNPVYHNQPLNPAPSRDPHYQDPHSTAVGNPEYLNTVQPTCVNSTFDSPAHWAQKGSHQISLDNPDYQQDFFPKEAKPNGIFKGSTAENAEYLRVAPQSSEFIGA

Point of comparison: `CC(C)c1ncc(N2CC(N(C)S(C)(=O)=O)C2)c2cnc(Nc3ccnc(-c4cn(C)nc4Cl)n3)cc12` [Example 131, N-(1-(7-((2-(3-chloro-1-methyl-1H-pyrazol-4-yl)pyrimidin-4-yl)amino)-1-isopropyl-2,6-diazanaphthalen-4-yl)azetidin-3-yl)-N-methyl methanesulfonamide], GI50 7.4 nM. Against it:
- CC(C)c1ccc(N2C[C@H](CS(C)(=O)=O)[C@H]2C)c2cnc(Nc3ccnc(-c4cn([C@@H]5CCOC5)nc4Cl)n3)cc12 [Example 143, N-(2-(3-chloro-1-((R)-tetrahydrofuran-3-yl)-1H-pyrazol-4-yl)pyrimidin-4-yl)-5-isopropyl-8-((2R,3S)-2-methyl-3-((methanesulfonyl)methyl)azetidin-1-yl)isoquinolin-3-amine] — 4.1-fold higher, 30 nM
- Cc1nn(C)cc1-c1nccc(Nc2cc3c(C(C)C)ccc(N4CC(N(C)S(C)(=O)=O)C4)c3cn2)n1 [Example 71, N-(1-(3-((2-(1,3-dimethyl-1H-pyrazol-4-yl)pyrimidin-4-yl)amino)-5-isopropylisoquinolin-8-yl)azetidin-3-yl)-N-methyl methanesulfonamide] — 2.3-fold higher, 17 nM
- CC(C)c1ccc(N2C[C@H](CS(C)(=O)=O)[C@H]2C)c2cnc(Nc3ccnc(-c4cn(C5CC6CN(C)CC6C5)nc4Cl)n3)cc12 (stereo partly drawn) [Example 150, N-(2-(3-chloro-1-(2-methyloctahydrocyclopentadieno[c]pyrrol-5-yl)-1H-pyrazol-4-yl)pyrimidin-4-yl)-5-isopropyl-8-((2R,3S)-2-methyl-3-((methanesulfonyl)methyl)azetidin-1-yl)isoquinolin-3-amine] — 9.5-fold higher, 70 nM
- CC(C)c1ccc(N2C[C@H](CS(C)(=O)=O)[C@H]2C)c2cnc(Nc3ccnc(-c4cn(C(C)(C)C#N)nc4Cl)n3)cc12 [Example 112, 2-(3-chloro-4-(4-((5-isopropyl-8-((2R,3S)-2-methyl-3-((methanesulfonyl)methyl)azetidin-1-yl)isoquinolin-3-yl)amino)pyrimidin-2-yl)-1H-pyrazol-1-yl)-2-methylpropanenitrile] — 7-fold higher, 52 nM
- CC1CC(Cn2cc(-c3nccc(Nc4cc5c(C(C)C)ccc(N6C[C@H](CS(C)(=O)=O)[C@H]6C)c5cn4)n3)c(Cl)n2)O1 (stereo partly drawn) [Example 188, N-(2-(3-chloro-1-((4-methyloxetan-2-yl)methyl)-1H-pyrazol-4-yl)pyrimidin-4-yl)-5-isopropyl-8-((2R,3S)-2-methyl-3-((methanesulfonyl)methyl)azetidin-1-yl)isoquinolin-3-amine] — 8.8-fold higher, 65 nM
- CC(C)c1ccc(N2C[C@H](CS(C)(=O)=O)[C@H]2C)c2cnc(Nc3ccnc(-c4cn(C[C@@H]5CCCO5)nc4Cl)n3)cc12 [Example 145, N-(2-(3-chloro-1-(((S)-tetrahydrofuran-2-yl)methyl)-1H-pyrazol-4-yl)pyrimidin-4-yl)-5-isopropyl-8-((2R,3S)-2-methyl-3-((methanesulfonyl)methyl)azetidin-1-yl)isoquinolin-3-amine] — 6.1-fold higher, 45 nM
- CC(C)c1ccc(N2C[C@H](CS(C)(=O)=O)[C@H]2C)c2cnc(Nc3ccnc(-c4cn(C[C@H]5CCN5C)nc4Cl)n3)cc12 [Example 146, N-(2-(3-chloro-1-(((R)-1-methylazetidin-2-yl)methyl)-1H-pyrazol-4-yl)pyrimidin-4-yl)-5-isopropyl-8-((2R,3S)-2-methyl-3-((methanesulfonyl)methyl)azetidin-1-yl)isoquinolin-3-amine] — 11-fold higher, 80 nM
- Cc1nn(C)cc1-c1nccc(Nc2cc3c(C(C)C)ccc(N4CC(CS(C)(=O)=NC#N)C4)c3cn2)n1 (stereo not shown) [Example 167, N-(((1-(3-((2-(1,3-dimethyl-1H-pyrazol-4-yl)pyrimidin-4-yl)amino)-5-isopropylisoquinolin-8-yl)azetidin-3-yl)methyl)(methyl)(carbonyl)-16-sulfanylidene)cyanamide] — 10-fold higher, 74 nM
- CC(C)c1ccc(N2C[C@H](CS(C)(=O)=O)[C@H]2C)c2cnc(Nc3ccnc(-c4cn(CC(O)C(F)(F)F)nc4Cl)n3)cc12 (stereo partly drawn) [Example 113, 3-(3-chloro-4-(4-((5-isopropyl-8-((2R,3S)-2-methyl-3-((methanesulfonyl)methyl)azetidin-1-yl)isoquinolin-3-yl)amino)pyrimidin-2-yl)-1H-pyrazol-1-yl)-1,1,1-trifluoropropan-2-ol] — 8.1-fold higher, 60 nM
- CC(C)c1ncc(N2C[C@H](CS(C)(=O)=O)[C@H]2C)c2cnc(Nc3ccnc(-c4cn(C)nc4Cl)n3)cc12 [Example 133, N-(2-(3-chloro-1-methyl-1H-pyrazol-4-yl)pyrimidin-4-yl)-5-isopropyl-8-((2R,3S)-2-methyl-3-((methanesulfonyl)methyl)azetidin-1-yl)-2,6-diazanaphthalen-3-amine] — 3.6-fold higher, 27 nM
- CC(C)c1ncc(N2C[C@H](N(C)S(C)(=O)=O)[C@H]2C)c2cnc(Nc3ccnc(-c4cn(C)nc4Cl)n3)cc12 [Example 59, N-((2R,3S)-1-(7-((2-(3-chloro-1-methyl-1H-pyrazol-4-yl)pyrimidin-4-yl)amino)-1-isopropyl-2,6-diazanaphthalen-4-yl)-2-methylazetidin-3-yl)-N-methyl methanesulfonamide] — within 1.5-fold, 5 nM
- CC(C)c1ccc(N2C[C@H](CS(C)(=O)=O)[C@H]2C)c2cnc(Nc3ccnc(-c4cn(C(C)CC#N)nc4Cl)n3)cc12 (stereo partly drawn) [Example 185, 3-(3-chloro-4-(4-((5-isopropyl-8-((2R,3S)-2-methyl-3-((methanesulfonyl)methyl)azetidin-1-yl)isoquinolin-3-yl)amino)pyrimidin-2-yl)-1H-pyrazol-1-yl)butyronitrile] — 11-fold higher, 80 nM
